Data reported in patent publication EP3654984B1, “TOPICAL TREATMENT FOR PREVENTING AND MITIGATING SKIN CYTOTOXICITY DUE TO THERAPY WITH TYROSINE KINASE INHIBITORS” (EUCARE S.R.L., priority 2017, dated 2019).
“Also recorded” adds a separate entry of the source.

Assays:
[1] = tested on: patients with metastatic lung adenocarcinoma with EGFR mutations; conditions: cited from earlier work
[2] = tested on: Asian patients with advanced non-small-cell lung cancer harboring EGFR mutations; conditions: cited from earlier work
[3] = tested on: patients with EGFR mutation-positive non-small-cell lung cancer; conditions: LUX-Lung 7, cited from earlier work
[4] = tested on: patients with non-small cell lung cancer (NSCLC); conditions: afatinib 40 mg/day for 90 days, cited from earlier work
[5] = tested on: skin and subcutaneous tissue; conditions: EMA marketing authorization documentation; cited from earlier work
[6] = tested on: appropriate patient population; conditions: approximately; when given to an appropriate patient population; cited from earlier work
[7] = tested on: patients with metastatic lung cancer; test: Retrospective study of prophylactic dermatological treatment with polydatin cream on cutaneous toxicity of afatinib (NCI-CTCAE v3.0 grading); assay type: in vivo; conditions: for Incidence of skin rash, All grades (%) / Incidence of skin rash, Grade 1 (%) / Incidence of skin rash, Grade 2 (%) / Incidence of skin rash, Grade 3 (%): 1.5% polydatin cream twice a day
From the text: The main exclusion criteria were: poor patient compliance; allergy or sensitivity to polydatin; current or previous treatment with topical or oral antioxidant drugs; concomitant skin diseases.
The retrospective study was specifically designed to evaluate a proactive management of EGFR-mediated skin toxicity, in order to minimize the possibility of having to reduce the dose or suspend the antitumor treatment.
Patients were monitored every 7 days for the first month, and thereafter every 20 days or when needed.
Data about severity, duration and management of cutaneous toxicity induced by TKI were analyzed in all patients treated using a descriptive statistic.
The scale used for the classification of cutaneous toxicities induced by EGFR-targeted therapies was the classification scale of the Common Terminology Criteria for Adverse Events of the National Cancer Institute.

skin = skin reactions during treatment with sunitinib and sorafenib; cited from earlier work
[8] = of the 160 (afatinib) / 159 (gefitinib) patients treated
[9] = term used for a group of adverse events
[10] = Cutaneous rash, all patients (n = 34), afatinib 40 mg/day

## CN(C)C/C=C/C(=O)Nc1cc2c(Nc3ccc(F)c(Cl)c3)ncnc2cc1O[C@H]1CCOC1 [Afatinib, afatinib]
[1]; LUX LUNG 3, % of patients
  treatment discontinued due to treatment-related adverse events: 8%
[1]; LUX LUNG 3
  incidence of rash grade 1-2: 72.9%
[1]; LUX-Lung 3 (LL3)
  Asthenia, All grades: 17.5%
  Asthenia, Grade 3: 1.3%
  Asthenia, Grade 4: 0%
  Diarrhea, All grades: 95.2%
  Diarrhea, Grade 3: 14.4%
  Diarrhea, Grade 4: 0%
  Dry skin, All grades: 29.3/NA %
  Dry skin, Grade 3: 0.4/NA %
  Dry skin, Grade 4: 0%
  Hitching, All grades: 18.8%
  Hitching, Grade 3: 0.4/0.4%
  Hitching, Grade 4: 0%
  Nausea, All grades: 17.9%
  Nausea, Grade 3: 0.9%
  Nausea, Grade 4: 0%
  Paronychia/periungual problems, All grades: 56.8%
  Paronychia/periungual problems, Grade 3: 11.4%
  Paronychia/periungual problems, Grade 4: 0%
  Rash/acne, All grades: 89.1%
  Rash/acne, Grade 3: 16.2%
  Rash/acne, Grade 4: 0.0%
  Reduction of appetite, All grades: 20.5%
  Reduction of appetite, Grade 3: 3.1%
  Reduction of appetite, Grade 4: 0%
  Stomatitis/mucositis, All grades: 72.1%
  Stomatitis/mucositis, Grade 3: 8.37%
  Stomatitis/mucositis, Grade 4: 0.4%
  Vomiting, All grades: 17.0%
  Vomiting, Grade 3: 3.1%
  Vomiting, Grade 4: 0%
[2]; LUX LUNG 6
  incidence of rash grade 1-2: 66.1%
  rate of treatment discontinuation due to adverse events: 2.1%
[2]; LUX-Lung 6 (LL6)
  Asthenia, All grades: 10.0%
  Asthenia, Grade 3: 0.4%
  Asthenia, Grade 4: 0%
  Diarrhea, All grades: 88.3%
  Diarrhea, Grade 3: 5.4%
  Diarrhea, Grade 4: 0%
  Hitching, All grades: 10.9%
  Hitching, Grade 3: 0.4/0.4%
  Hitching, Grade 4: 0%
  Nausea, All grades: 7.5%
  Nausea, Grade 3: 0.0%
  Nausea, Grade 4: 0%
  Paronychia/periungual problems, All grades: 32.6%
  Paronychia/periungual problems, Grade 3: 0.0%
  Paronychia/periungual problems, Grade 4: 0%
  Rash/acne, All grades: 80.8%
  Rash/acne, Grade 3: 14.2%
  Rash/acne, Grade 4: 0.4%
  Reduction of appetite, All grades: 10.0%
  Reduction of appetite, Grade 3: 1.3%
  Reduction of appetite, Grade 4: 0%
  Stomatitis/mucositis, All grades: 51.9%
  Stomatitis/mucositis, Grade 3: 5.4%
  Stomatitis/mucositis, Grade 4: 0.0%
  Vomiting, All grades: 9.6%
  Vomiting, Grade 3: 0.8%
  Vomiting, Grade 4: 0%
[3]; ALT, alanine aminotransferase
  ALT increased, All: 9.4%
[3]; AST, aspartate aminotransferase
  AST increased, All: 6.3%
[3]; afatinib 40 mg/day or gefitinib 250 mg/day
  Diarrhea, All: 90.0%
[3]
  Alopecia, All: 10.6%
  Itching, All: 23.1%
  Nausea, All: 16.3%
  Nausea, Grade 3: 1.3%
  Reduction of appetite, All: 16.3%
  Reduction of appetite, Grade 3: 0.6%
  Vomiting, All: 10.6%
  Xerosis, All: 32.5%
  grade 3 or 4 diarrhea: 13%
  grade 3 or 4 rash or acne: 9%
[3]; [8]
  grade 3 or 4 diarrhea, number of patients: 20 patients
  grade 3 or 4 rash or acne, number of patients: 15 patients
[3]; [9]
  Asthenia*, All: 20.6%
  Asthenia*, Grade 3: 5.6%
  Paronychia*, All: 55.6%
  Paronychia*, Grade 3: 1.9%
  Rash/acne*, All: 88.8%
  Rash/acne*, Grade 3: 9.4%
  Stomatitis*, All: 64.4%
  Stomatitis*, Grade 3: 4.4%
[4]; control arm (no treatment)
  incidence of rash of any grade: 75.6%
[4]; control arm
  incidence of rash grade ≥ 2: 35.6%
[5]
  frequency of acneiform dermatitis: very common ("very common" (frequency ≥ 1/10))
  frequency of dryness of the skin (xerosis): very common ("very common" (frequency ≥ 1/10))
  frequency of itching: very common ("very common" (frequency ≥ 1/10))
  frequency of palmoplantar erythrodysesthesia syndrome: common ("common" (frequency ≥ 1/100 e < 1/10))
  frequency of skin rash: very common ("very common" (frequency ≥ 1/10))

## COc1cc2ncnc(Nc3ccc(F)c(Cl)c3)c2cc1OCCCN1CCOCC1 [Gefitinib, gefitinib]
[6]
  response rates: 60-70%

## C#Cc1cccc(Nc2ncnc3cc(OCCOC)c(OCCOC)cc23)c1 [erlotinib]
[6]
  response rates: 60-70%

## OC[C@H]1O[C@@H](Oc2cc(O)cc(/C=C/c3ccc(O)cc3)c2)[C@H](O)[C@@H](O)[C@@H]1O [polydatin, 3,4,5'-trihydroxystilbene-3-β-mono-d-glucoside]
[7]; 1.5% polydatin cream prophylaxis, afatinib 40 mg/day, n = 34
  patients who had to discontinue therapy due to toxicity of the antitumor drug: no patient; also recorded: no suspension of treatment
[7]; [10]
  Incidence of skin rash, All grades (%): 41.2%
  Incidence of skin rash, Grade 1 (%): 20.6%
  Incidence of skin rash, Grade 2 (%): 20.6%
  Incidence of skin rash, Grade 3 (%): 0%
[7]; Females, afatinib 40 mg/day
  Incidence of skin rash, All grades (%): 23.5%
  Incidence of skin rash, Grade 1 (%): 5.9%
  Incidence of skin rash, Grade 2 (%): 8.6%
  Incidence of skin rash, Grade 3 (%): 0%
[7]; Males, afatinib 40 mg/day
  Incidence of skin rash, All grades (%): 17.6%
  Incidence of skin rash, Grade 1 (%): 14.7%
  Incidence of skin rash, Grade 2 (%): 12%
  Incidence of skin rash, Grade 3 (%): 0%
[7]; prophylaxis with polydatin, afatinib, n = 34
  patients who had to reduce the dose for the cutaneous toxicity of the drug: no patient
[7]; prophylaxis with polydatin, n = 34
  patients who had to reduce the dose of afatinib from 40 to 30 mg/day due to intestinal toxicity (%): 35.3%

## CNC(=O)c1cc(Oc2ccc(NC(=O)Nc3ccc(Cl)c(C(F)(F)F)c3)cc2)ccn1 [sorafenib]
skin
  alopecia: 15%
  folliculitis: 38%
  hand-foot syndrome (palmopantar erythrodysesthesia): 42%
  nail alterations: 14%
  pruritus: 36%
  skin rash: 46%
  stomatitis: 16%

## CCN(CC)CCNC(=O)c1c(C)[nH]c(/C=C2\C(=O)Nc3ccc(F)cc32)c1C [sunitinib]
skin
  alopecia: 15%
  folliculitis: 38%
  hand-foot syndrome (palmopantar erythrodysesthesia): 42%
  nail alterations: 14%
  pruritus: 36%
  skin rash: 46%
  stomatitis: 16%
